Tests used:
Type in all cases: ADME
[1] = Kinetic constant for the germline antibody
[2] = Kinetic constant for the SerL91Val (germline)
[3] = Kinetic constant for the 39-A11 antibody
[4] = Kinetic constant for the Val91Tyr (39-A11)

SMILES	Km [1] [µM]	Km [2] [µM]	Km [3] [µM]	Km [4] [µM]
CC(=O)Nc1ccc(N2C(=O)C=CC2=O)cc1	450	740	740	420
C=C/C=C/NC(=O)OCC(=O)O	1400	1200	1200	2100

Source: ChEMBL document CHEMBL1131759, “A mutational study of a Diels-Alderase catalytic antibody” (Bioorg Med Chem Lett, 1999)
